Assay [1] has as its system Mus musculus. As to the kind of experiment: Analgesic activity in mouse assessed as latency time at 0.04 mmol/kg, sc by hot plate method relative to control. It counts as functional.
Assay [2] relates to Mus musculus. As to the kind of experiment: Analgesic activity against acetic acid-induced writhing in mouse at 0.04 mmol/kg, sc relative to control. The class given is functional. In general terms: In writhing tests, fewer writhes than in controls are read as antinociception.

Consider `C(CN1CC[N+]2(CCCC2)CC1)CN1CC[N+]2(CCCC2)CC1.[Br-].[Br-]`, for which the Activity in the assay with Mus musculus [1] was found to be 64.2%. Besides, in the assay on Mus musculus [2], the inhibition in vivo – broadly, the relative decrease from the control value, in per cent – at 40 µmol/kg worked out at 81%.

Values taken from ChEMBL document CHEMBL1149680, “Unique spirocyclopiperazinium salt. Part 4: modification of dispirocyclopiperazinium (DSPZ) salts as analgesics” (Bioorg Med Chem Lett, 2007).
